# Assay results from BindingDB's records for patent US20250091994 (Kobe University, 2025).
# Molecular target: GTPase HRas [G12V] (Homo sapiens, UniProt P01112, G12V)
# Experiment: In Vitro Ras-Raf Binding Inhibitory Activity Assay
# Procedure: The in vitro Ras-Raf binding inhibitory activity of the compound of the present invention was evaluated by an ELISA method described below. GST-c-Raf-1 RBD diluted with a Ras-Raf binding buffer (50 mM Tris-HCl pH7.4, 150 mM NaCl, 5 mM MgCl2, 1 mM EDTA, and 1% Triton-X100) was added to each well of a glutathione-coated 96-well plate (Thermo Fisher Scientific.), and was incubated at 30° C. for 1 hour, to immobilize Raf on the well. The unbound free Raf was eliminated by washing the well with the Ras-Raf binding buffer three times. Subsequently, GTPTS-bound HRasG12V diluted with the Ras-Raf binding buffer and each compound solution (final DMSO concentration: 10%) were applied to each well, and the resulting mixture was then incubated at 30° C. for 1 hour, so that Ras and Raf were allowed to bind to each other. Thereafter, the plate was washed with the Ras-Raf binding buffer twice, and was then subjected to a blocking treatment at room temperature for 20 minutes, using TBS-Tween {10 mM Tris-HCl pH 7.4, 150 mM NaCl, and 0.05% (w/v) Tween-20}-5% (w/v) bovine serum albumin (BSA). After that, an anti-HRas antibody (C-20, Santa Cruz) or an anti-HRas antibody (259, Santa Cruz), which had been 1000 times diluted with TBS-Tween-5% BSA, was added to the reaction mixture, and incubated at room temperature for 1 hours. After the treatment with the primary antibody, the plate was washed with TBS-Tween-5% BSA three times, and a horseradish peroxidase-labeled secondary antibody against rabbit immunoglobulin G (GE Healthcare) of 1000 times diluted with TBS-Tween-5% BSA, was added to the plate, followed by incubation at room temperature for 1 hour. After the treatment with the secondary antibody, the plate was washed with TBS-Tween-5% BSA three times, and a substrate solution (TMB) was then added to the plate, followed by incubation at room temperature for 15 minutes for coloration. Finally, 2 M H2SO4 was added to stop color development (coloration reaction kit: Nacalai Tesque).
# Chain of GTPase HRas [G12V] (P01112 whole entry G12V, looked up): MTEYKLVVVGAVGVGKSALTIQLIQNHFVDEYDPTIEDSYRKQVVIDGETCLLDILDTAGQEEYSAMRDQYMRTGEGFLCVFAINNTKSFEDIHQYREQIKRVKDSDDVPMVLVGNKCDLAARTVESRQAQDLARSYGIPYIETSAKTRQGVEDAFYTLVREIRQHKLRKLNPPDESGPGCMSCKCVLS
row,IC50,Compound
1,20000 nM,"COc1cc(C=C2C(=O)c3cccc(F)c3N2C(C)=O)ccc1OCC(=O)N1CCOCC1 [US20250091994, Example 105]"
2,4100 nM,"CC(=O)NCc1cccc2c1C(=O)/C(=C/c1ccc3cc(C(=O)N4CCOCC4)ccc3n1)N2C(C)=O [US20250091994, Example 106]"
3,2600 nM,"CC(=O)N1/C(=C/c2nc3ccc(/C=C/C(=O)N4CCOCC4)cc3s2)C(=O)c2ccccc21 [US20250091994, Example 108]"
4,460 nM,"CC(=O)N1C(=Cc2nc3cc(/C=C/C(=O)N4CCOCC4)ccc3s2)C(=O)c2ccccc21 [US20250091994, Example 109]"
5,420 nM,"CC(=O)N1/C(=C/c2nc3cc(/C=C/C(=O)N4CCOCC4)ccc3s2)C(=O)c2ccccc21 [US20250091994, Example 110]"
6,1000 nM,"CC(=O)N1/C(=C\c2cc(C(N)=O)c3cc(C(=O)N4CCOCC4)ccc3n2)C(=O)c2ccccc21 [US20250091994, Example 111]"
7,550 nM,"CC(=O)N1/C(=C\c2cc(On3nnc4cccnc43)c3cc(C(=O)N4CCOCC4)ccc3n2)C(=O)c2ccccc21 [US20250091994, Example 112]"
8,680 nM,"CC(=O)Nc1cc(/C=C2/C(=O)c3ccccc3N2C(C)=O)nc2ccc(C(=O)N3CCOCC3)cc12 [US20250091994, Example 113]"
9,29000 nM,"CC(=O)N1/C(=C\c2ccc3cc(C(=O)N4CCC(c5ccccc5)CC4)ccc3n2)C(=O)c2ccccc21 [US20250091994, Example 114]"
10,8400 nM,"COCCN1CCN(C(=O)c2ccc3nc(/C=C4/C(=O)c5ccccc5N4C(C)=O)ccc3c2)CC1 [US20250091994, Example 116]"
11,1100 nM,"CC(=O)N1/C(=C/c2cc(-c3ccnc4ccccc34)c3cc(C(=O)N4CCOCC4)ccc3n2)C(=O)c2ccccc21 [US20250091994, Example 117]"
12,730 nM,"CC(=O)N1C(=Cc2cc(-c3cccc4ccccc34)c3cc(C(=O)N4CCOCC4)ccc3n2)C(=O)c2ccccc21 [US20250091994, Example 118]"
13,2900 nM,"COC1(CN2CCN(C(=O)c3ccc4nc(/C=C5/C(=O)c6ccccc6N5C(C)=O)ccc4c3)CC2)COC1 [US20250091994, Example 119]"
14,2200 nM,"COC1(COC(=O)N2CCN(C(=O)c3ccc4nc(/C=C5/C(=O)c6ccccc6N5C(C)=O)ccc4c3)CC2)COC1 [US20250091994, Example 120]"
15,8500 nM,"CCOC(=O)N1C(=Cc2ccc(OCC(=O)N3CCOCC3)c(OC)c2)C(=O)c2ccccc21 [US20250091994, Example 123]"
16,2800 nM,"COc1cc(C=C2C(=O)c3ccccc3N2C(C)=O)ccc1OCCO [US20250091994, Example 125]"
17,1400 nM,"CC(=O)N1C(=Cc2ccc3cc(OCCO)ccc3n2)C(=O)c2ccccc21 [US20250091994, Example 126]"
18,2100 nM,"CC(=O)N1/C(=C\c2ccc3cc(C(=O)O)ccc3n2)C(=O)c2ccccc21 [US20250091994, Example 127]"
19,1500 nM,"CC(=O)N1/C(=C\c2ccc3cc(C(=O)N4CCC(C(=O)O)CC4)ccc3n2)C(=O)c2ccccc21 [US20250091994, Example 129]"
20,1500 nM,"CC(=O)N1C(=Cc2ccc3cc(CNC4CCOCC4)ccc3n2)C(=O)c2ccccc21 [US20250091994, Example 131]"
21,790 nM,"CC(=O)N1/C(=C/c2nc3ccc(CNC4CCOCC4)cc3s2)C(=O)c2ccccc21 [US20250091994, Example 135]"
22,6000 nM,"CC(=O)N1C(=Cc2ccc3cc(C(=O)N4CCNCC4)ccc3n2)C(=O)c2ccccc21 [US20250091994, Example 139]"
23,1300 nM,"CC(=O)N1/C(=C\c2cc(-c3ccccc3-c3ccccc3)c3cc(C(=O)N4CCN(C)CC4)ccc3n2)C(=O)c2ccccc21 [US20250091994, Example 140]"
24,800 nM,"CC(=O)N1/C(=C\c2cc(-c3ccccc3-c3ccccc3)c3cc(C(=O)N4CCC(C(=O)O)CC4)ccc3n2)C(=O)c2ccccc21 [US20250091994, Example 142]"
25,800 nM,"CC(=O)N1CCc2cc(-c3cc(/C=C4/C(=O)c5ccccc5N4C(C)=O)nc4ccc(C(=O)N5CCOCC5)cc34)ccc2C1 [US20250091994, Example 144]"
26,600 nM,"CC(=O)N1/C(=C/c2cc(-c3cccc4[nH]ncc34)c3cc(C(=O)N4CCOCC4)ccc3n2)C(=O)c2ccccc21 [US20250091994, Example 145]"

row,IC50,Compound
1,500 nM,"CC(=O)N1CCc2c(cccc2-c2cc(/C=C3/C(=O)c4ccccc4N3C(C)=O)nc3ccc(C(=O)N4CCOCC4)cc23)C1 [US20250091994, Example 146]"
2,300 nM,"CC(=O)N1/C(=C/c2cc(-c3cccc(-c4cn[nH]c4)c3)c3cc(C(=O)N4CCOCC4)ccc3n2)C(=O)c2ccccc21 [US20250091994, Example 148]"
3,300 nM,"CC(=O)N1/C(=C\c2cc(-c3cccc(-c4cnn(C)c4)c3)c3cc(C(=O)N4CCOCC4)ccc3n2)C(=O)c2ccccc21 [US20250091994, Example 149]"
4,2400 nM,"CC(=O)N1C(=Cc2cc(-c3ccc(-c4ccccc4)cc3)c3cc(C(=O)N4CCN(C5COC5)CC4)ccc3n2)C(=O)c2ccccc21 [US20250091994, Example 162]"
5,400 nM,"CC(=O)N1C(=Cc2cc(-c3ccc4c(c3)CCN(C)C4)c3cc(C(=O)N4CCOCC4)ccc3n2)C(=O)c2ccccc21 [US20250091994, Example 173]"
6,800 nM,"CC(=O)N1/C(=C\c2cc(-c3cnn(C)c3)c3ccccc3n2)C(=O)c2ccccc21 [US20250091994, Example 177]"
7,800 nM,"CCn1cc(-c2cc(/C=C3/C(=O)c4ccccc4N3C(C)=O)nc3ccc(C(=O)N4CCOCC4)cc23)cn1 [US20250091994, Example 178]"
8,1000 nM,"CC(=O)N1CCCC(c2cc(/C=C3/C(=O)c4ccccc4N3C(C)=O)nc3ccc(C(=O)N4CCOCC4)cc23)C1 (configuration not stated) [US20250091994, Example 179]"
9,1400 nM,"CC(=O)N1C(=Cc2cc(CN3CCOCC3=O)c3ccccc3n2)C(=O)c2ccccc21 [US20250091994, Example 183]"
10,900 nM,"CC(=O)N1/C(=C\c2cc(-c3ccncc3)c3cc(C(=O)N4CCOCC4)ccc3n2)C(=O)c2ccccc21 [US20250091994, Example 184]"
11,1600 nM,"CC(=O)N1C(=Cc2cc(-c3cncnc3)c3cc(C(=O)N4CCOCC4)ccc3n2)C(=O)c2ccccc21 [US20250091994, Example 185]"
12,500 nM,"CC(=O)N1CCc2cc(-c3cc(/C=C4/C(=O)c5ccccc5N4C(C)=O)nc4ccccc34)ccc2C1 [US20250091994, Example 187]"
13,1500 nM,"CC(=O)N1/C(=C\c2cc(-c3ncccn3)c3cc(C(=O)N4CCOCC4)ccc3n2)C(=O)c2ccccc21 [US20250091994, Example 189]"
14,900 nM,"CC(=O)N1C(=Cc2cc(-c3ccc4c(c3)CCNC4=O)c3ccccc3n2)C(=O)c2ccccc21 [US20250091994, Example 190]"
15,800 nM,"CC(=O)N1/C(=C\c2cc(-c3cn(C)cn3)c3cc(C(=O)N4CCOCC4)ccc3n2)C(=O)c2ccccc21 [US20250091994, Example 192]"
16,700 nM,"CC(=O)N1CCc2c(cccc2-c2cc(/C=C3/C(=O)c4ccccc4N3C(C)=O)nc3ccccc23)C1 [US20250091994, Example 193]"
17,800 nM,"CC(=O)N1/C(=C\c2cc(-c3ccccc3-c3cnn(C)c3)c3cc(C(=O)N4CCOCC4)ccc3n2)C(=O)c2ccccc21 [US20250091994, Example 196]"
18,2100 nM,"CC(=O)N1/C(=C\c2ccc3c(-c4cnn(C)c4)c(C(=O)N4CCOCC4)ccc3n2)C(=O)c2ccccc21 [US20250091994, Example 199]"
19,1000 nM,"CC(=O)N1CCc2cc(-c3c(C(=O)N4CCOCC4)ccc4nc(/C=C5/C(=O)c6ccccc6N5C(C)=O)ccc34)ccc2C1 [US20250091994, Example 200]"
20,800 nM,"CC(=O)N1CCc2ccc(-c3c(C(=O)N4CCOCC4)ccc4nc(/C=C5/C(=O)c6ccccc6N5C(C)=O)ccc34)cc2C1 [US20250091994, Example 201]"
21,600 nM,"CC(=O)N1/C(=C\c2nc(-c3cnn(C)c3)c3ccccc3n2)C(=O)c2ccccc21 [US20250091994, Example 203]"
22,1800 nM,"CC(=O)N1C(=Cc2cc(C(=O)N3CCN(C4COC4)CC3)c3ccccc3n2)C(=O)c2ccccc21 [US20250091994, Example 204]"
23,2000 nM,"CC(=O)N1C(=Cc2cc(-c3ccccc3-c3cnn(C)c3)c3cc(CNC4CCOCC4)ccc3n2)C(=O)c2ccccc21 [US20250091994, Example 206]"
24,700 nM,"CC(=O)N1CCc2c(cccc2-c2cc(/C=C3/C(=O)c4ccccc4N3C(C)=O)nc3ccc(CNC4CCOCC4)cc23)C1 [US20250091994, Example 207]"
25,400 nM,"CC(=O)N1CCc2cc(-c3cc(/C=C4/C(=O)c5ccccc5N4C(C)=O)nc4ccc(CNC5CCOCC5)cc34)ccc2C1 [US20250091994, Example 209]"
26,600 nM,"CC(=O)N1CCc2ccc(-c3cc(/C=C4/C(=O)c5ccccc5N4C(C)=O)nc4ccc(CNC5CCOCC5)cc34)cc2C1 [US20250091994, Example 211]"
